The text below walks through data of patent publication EP3750528A1, “COMPOSITIONS FOR TREATING DYSTROPHIES AND MYOTONIA” (Nexien Biopharma, Inc., priority 2019, dated 2020).

The test system of series [1] is myotonia and myalgia. The series can be described thus: Previous treatments for myotonia and myalgia (case history).
The test system of series [2] is dystrophic mdx mice. The conditions noted are these: injection; mostly via activation of TRPV1 and TRPA1; cited from earlier work.
[3] abbreviates: Patient 2 (DM2), suspended also for risk of cardiac arrhythmias.
Where [4] appears, read: Patient 6 (CLCN1-congenital myotonia).

For `CC(C)C[C@H](CN)CC(=O)O` [pregabalin], the “myalgia under previous treatment” value in series [1] (Patient 2 (DM2)) is given as “unsuccessfully treated”. Besides, the “myotonia under previous treatment” value in series [1] (setting [3]) is recorded as “inefficacy”.
As to `C=C(C)[C@@H]1CCC(C)=C[C@H]1c1c(O)cc(CCCCC)cc1O` [CBD, cannabidiol], in series [2], the “effect in dystrophic mdx mice” value was “promoted myotube formation and reduced inflammation”.
`O=C(NCC1CCCCN1)c1cc(OCC(F)(F)F)ccc1OCC(F)(F)F` (stereo not shown) [flecainid]: in series [1] (setting [4]), the “myotonia under previous treatment” value is given as “no relevant improvement of myotonia”.
The same measure, in the same setting: the value for `Nc1nnc(-c2cccc(Cl)c2Cl)c(N)n1` [lamotrigine] was “no relevant improvement of myotonia”.
Consider `COc1ccccc1OCC(O)COC(N)=O` (stereo not shown) [methocarbamol], for which the “myalgia under previous treatment” value in series [1] (Patient 2 (DM2)) is “unsuccessfully treated”.
Turning to `Cc1cccc(C)c1OCC(C)N` (stereo not shown) [mexiletine], the “myotonia under previous treatment” value is given as “inefficacy” in series [1] (setting [3]) and “improved the myotonia” in series [1] (setting [4]). Further, the “drug-related side effect of previous treatment” value in series [1] (Patient 6, resolved on drug discontinuation) is given as “severe major depression”.
As for `NC(=O)N1c2ccccc2C=Cc2ccccc21` [carbamazepine], the “myotonia under previous treatment” value in series [1] (setting [3]) is given as “inefficacy”; in series [1] (setting [4]), “no relevant improvement of myotonia”.
For `Cc1ccc(C(=O)C(C)CN2CCCCC2)cc1` (stereo not shown) [tolperisone], the “myotonia under previous treatment” value in series [1] (setting [4]) is listed as “no relevant improvement of myotonia”.
Consider `CC(C)Cc1ccc(C(C)C(=O)O)cc1` (stereo not shown) [ibuprofen], for which the “myalgia under previous treatment” value in series [1] (Patient 2 (DM2)) is on record as “unsuccessfully treated”.
